Measurements as given in patent publication US12180226B2, “Spirotricycle RIPK1 inhibitors and methods of uses thereof” (Merck Sharp & Dohme LLC, priority 2021, dated 2024).
Structures can show the parent of a compound that is named as a salt.

These compounds were tested against RIPK1 (recombinant GST-RIPK1 kinase domain, residues 1-327) (Homo sapiens (Human), UniProt Q13546) (assay: RIPK1-ADP-Glo Enzymatic Assay). Conditions: ADP-Glo; 25 nM GST-RIPK1, 300 μM ATP; assay lower limit ~25 nM; read-out: RIPK1 V0 Ec50.
Sequence of RIPK1 (recombinant GST-RIPK1 kinase domain, residues 1-327) (Q13546 1-327): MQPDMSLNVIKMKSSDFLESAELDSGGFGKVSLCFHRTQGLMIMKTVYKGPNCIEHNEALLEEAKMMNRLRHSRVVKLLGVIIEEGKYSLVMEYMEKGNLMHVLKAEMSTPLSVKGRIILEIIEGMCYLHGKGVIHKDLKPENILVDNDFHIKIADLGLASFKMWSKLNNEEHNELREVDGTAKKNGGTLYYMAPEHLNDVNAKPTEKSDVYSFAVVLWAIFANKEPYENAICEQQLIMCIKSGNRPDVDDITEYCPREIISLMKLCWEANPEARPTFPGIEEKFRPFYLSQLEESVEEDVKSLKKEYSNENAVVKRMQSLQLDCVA
Format: biochemical
Description: RIPK1-ADP-Glo Enzymatic Assay
The enzymatic activity of RIPK1 is measured using an assay derived from ADP-Glo kit (TMPromega), which provides a luminescent-based ADP detection system. Specifically, the ADP generated by RIPK1 kinase is proportionally detected as luminescent signals in a homogenous fashion. In this context, the assessment of the inhibitory effect of small molecules (EC50) is measured by the effectiveness of the compounds to inhibit the ATP to ADP conversion by RIPK1.
In this assay, the potency (EC50) of each compound was determined from a ten-point (1:3 serial dilution; top compound concentration of 100000 nM) titration curve using the following outlined procedure. The assay bottom or lower limit of confidence is ˜25 nM. To each well of a white ProxiPlus 384 well-plate, 30 nL of compound (1% DMSO in final assay volume of 3 μL) was dispensed, followed by the addition of 2 μL of 1×assay buffer (25 mM Hepes 7.3, 20 mM MgCl2, 50 mM NaCl, 1 mM DTT, 0.005% Tween20, and 0.02% BSA) containing 37.5 nM of GST-RIPK1 (recombinant GST-RIPK1 kinase domain (residues 1-327) enzyme produced from baculovirus-transfected Sf21 cells: MW=62 kDa). Plates were placed in an ambient temperature humidified chamber for a 30-minute pre-incubation with compound. Subsequently, each reaction was initiated by the addition of 1 μL 1×assay buffer containing 900 μM ATP and […] dephosphorylated-MBP substrate. The final reaction in each well of 3 μL consists of 25 nM of GST-RIPK1, 300 μM ATP, and 3 μM dephosphorylated-MBP. Kinase reactions were allowed to proceed for 150 minutes prior to adding ADP-Glo reagents per Promega's outlined kit protocol. Dose-response curves were generated by plotting percent effect (% product conversion; Y-axis) vs. Log10 compound concentrations (X-axis). EC50 values were calculated using a non-linear regression, four-parameters sigmoidal dose-response model.

| EC50 [nM] | Compound |
| --- | --- |
| < 25 | NC(=O)c1nc(N2CCC3(CC2)O[C@@H]2CC[C@@H](c4cc(F)cc(F)c4)N2C3=O)ncc1F [Example 4.184, 2-[(5′S,7a′R)-5′-(3,5-difluorophenyl)-3′-oxotetrahydro-1H,3′H-spiro[piperidine-4,2′-pyrrolo[2,1-b] [1,3]oxazol]-1-yl]-5-fluoropyrimidine-4-carboxamide] |
| 96.8 | N#Cc1cc(F)cc(C(=O)N2CCC3(CC2)O[C@@H]2CC[C@@H](c4cc(F)cc(F)c4)N2C3=O)c1 [Example 5.15, 3-((5′S,7a′R)-5′-(3,5-difluorophenyl)-3′-oxo-tetrahydro-3′H-spiro [piperidine-4,2′-pyrrolo-[2,1-b]oxazole]-1-carbon-yl)-5-fluorobenzonitrile] |
| < 25 | O=C1N2[C@@H](CC[C@H]2c2ccccc2)OC12CCN(c1ncc(-c3ncco3)c(C(F)F)n1)CC2 [Example 21.3, (5′S,7a′R)-1-[4-(difluoromethyl)-5-(1,3-oxazol-2-yl)pyrimidin-2-yl]-5′-phenyltetrahydro-3′H-spiro[piperidine-4,2′-pyrrolo[2,1-b][1,3]oxazol]-3′-one] |
| < 25 | Cc1cc(N2CCC3(CC2)O[C@@H]2CC[C@@H](c4ccccc4)N2C3=O)cc(C#N)n1 [Example 4.16, 6-methyl-4-[(5′S,7a′R)-3′-oxo-5′-phenyltetrahydro-1H,3′H-spiro[piperidine-4,2′-pyrrolo[2,1-b] [1,3]oxazol]-1-yl]pyridine-2-carbonitrile] |
| 159 | O=C1N2[C@@H](CC[C@H]2c2cc(F)cc(F)c2)OC12CCN(c1ccc(C3CCC3)c3ccnn13)CC2 [Example 18.1, (5′S,7a′R)-1-(4-Cyclobutylpyrazolo[1,5-a]pyridin-7-yl)-5′-(3,5-difluorophenyl)tetrahydro-3′H-spiro[piperidine-4,2′-pyrrolo[2,1-b]oxazol]-3′-one, TFA salt] |
| 40.7 | COc1cc(F)cc([C@@H]2CC[C@H]3OC4(CCN(C(=O)c5ccccc5)CC4)C(=O)N32)c1 [Example 17.9, (5′S,7a′R)-1-benzoyl-5′-(3-fluoro-5-methoxyphenyl)tetrahydro-3′H-spiro[piperidine-4,2′-pyrrolo[2,1-b]oxazol]-3′-one] |
| < 25 | N#Cc1ccc(N2CCC3(O[C@@H]4CC[C@@H](c5ccccc5)N4C3=O)C(F)C2)n2ncnc12 (stereo partly drawn) [Example 4.258, 5-[(5′S,7a′R)-3-fluoro-3′-oxo-5′-phenyltetrahydro-1H,3′H-spiro[piperidine-4,2′-pyrrolo[2,1-b] [1,3]oxazol]-1-yl][1,2,4]triazolo[1,5-a] pyridine-8-carbonitrile] |
| < 25 | N#Cc1cnc(N2CCC3(CC2)O[C@@H]2CC[C@@H](c4ccccc4)N2C3=O)n2ncnc12 [Example 4.241, 5-[(5′S,7a′R)-3′-oxo-5′-phenyltetrahydro-1H,3′H-spiro[piperidine-4,2′-pyrrolo[2,1-b] [1,3]oxazol]-1-yl][1,2,4]triazolo[1,5-c] pyrimidine-8-carbonitrile] |
| 851 | O=C(c1ccsc1-c1ncccn1)N1CCC2(CC1)O[C@@H]1CC[C@@H](c3cc(F)cc(F)c3)N1C2=O [Example 6.36, (5′S,7a′R)-5′-(3,5-difluorophenyl)-1-[2-(pyrimidin-2-yl)thio-phene-3-carbonyl] tetrahydro-3′H-spiro [piperidine-4,2′-pyrrolo[2,1-b][1,3]oxazol]-3′-one] |
| < 25 | O=C(c1cccc(C2CC2)c1)N1CCC2(CC1)O[C@@H]1CC[C@@H](c3ccccc3)N1C2=O [Example 6.156, (5′S,7a′R)-1-(3-cyclopropylbenzene-1-carbonyl)-5′-phen-yltetrahydro-3′H-spiro[piperidine-4,2′-pyrrolo[2,1-b][1,3]oxazol]-3′-one] |
| 235 | O=C1N2[C@@H](CC[C@H]2c2ccccc2)OC12CN(c1ncnc3ccnn13)C2 [Example 4.137, (5′S,7a′R)-5′-phenyl-1-(pyrazolo[1,5-a] [1,3,5]triazin-4-yl)tetrahydro-3′H-spiro[azetidine-3,2′-pyrrolo[2,1-b] [1,3]oxazol]-3′-one] |
| < 25 | O=C1N2[C@@H](CC[C@H]2c2cc(F)cc(F)c2)OC12CCN(c1ccc(Cl)c3ncnn13)CC2 [Example 15.4, (5′S,7a′R)-1-(8-chloro-[1,2,4]triazolo[1,5-a]pyridin-5-yl)-5′-(3,5-difluorophenyl)tetrahydro-3′H-spiro[piperidine-4,2′-pyrrolo[2,1-b]oxazol]-3′-one, TFA salt] |
| < 25 | N#Cc1ccc(N2CCC3(CC2)O[C@@H]2CC[C@@H](c4ccccc4)N2C3=O)n2ncc(C(F)F)c12 [Example 4.179, 3-(difluoromethyl)-7-[(5′S,7a′R)-3′-oxo-5′-phenyltetrahydro-1H,3′H-spiro[piperidine-4,2′-pyrrolo[2,1-b] [1,3]oxazol]-1-yl]pyrazolo[1,5-a] pyridine-4-carbonitrile] |
| 196 | N#Cc1cc([C@@H]2CC[C@H]3OC4(CCN(C(=O)c5ccccc5)CC4)C(=O)N32)ccc1F [Example 17.4, 5-((5′S,7a′R)-1-benzoyl-3′-oxotetrahydro-3′H-spiro[piperidine-4,2′-pyrrolo[2,1-b]oxazol]-5′-yl)-2-fluorobenzonitrile] |
| 42.2 | Cn1cccc1C(=O)N1CCC2(CC1)O[C@@H]1CC[C@@H](c3cc(F)cc(F)c3)N1C2=O [Example 5.48, (5′S,7a′R)-5′-(3,5-difluoro-phenyl)-1-(1-methyl-1H-pyrrole-2-carbonyl)tetra-hydro-3′H-spiro[piperidine-4,2′-pyrrolo[2,1-b]oxazol]-3′-one] |
| 60 | Cc1cccc(C(=O)N2CCC3(CC2)O[C@@H]2CC[C@@H](c4cc(F)cc(F)c4)N2C3=O)n1 [Example 6.13, (5′S,7a′R)-5′-(3,5-difluorophenyl)-1-(6-methylpyridine-2-carbonyl)tetrahydro-3′H-spiro[piperidine-4,2′-pyrrolo[2,1-b] [1,3]oxazol]-3′-one] |
| 309 | N#Cc1cc(N2CCC3(CC2)C[C@@H]2OC[C@@H](c4ccccc4)N2C3=O)ncn1 [Example 4.113, 6-[(3′R,7a′S)-5′-oxo-3′-phenyltetrahydro-1H,5′H-spiro[piperidine-4,6′-pyrrolo[2,1-b] [1,3]oxazol]-1-yl]pyrimidine-4-carbonitrile] |
| < 25 | O=C(c1nc(Br)ccc1F)N1CCC2(CC1)O[C@@H]1CC[C@@H](c3cc(F)cc(F)c3)N1C2=O [Example 6.82] |
| < 25 | CC1CN(C(=O)c2ccccc2)CCC12O[C@@H]1CC[C@@H](c3cc(F)cc(F)c3)N1C2=O (single isomer, unassigned) [Example 2.6, (3[S or R],4[S or R], 5′S,7a′R)-1-benzoyl-5′-(3,5-difluorophenyl)-3-methyltetrahydro-3′H-spiro[piperidine-4,2′-pyrrolo[2,1-b]oxazol]-3′-one] |
| 37.6 | O=C1N2[C@@H](CC[C@H]2c2ccccc2)OC12CN(c1cccc3ncnn13)C2 [Example 13.22, (5′S,7a′R)-1-([1,2,4]triazolo[1,5-a]pyridin-5-yl)-5′-phenyltetrahydro-3′H-spiro[azetidine-3,2′-pyrrolo[2,1-b]oxazol]-3′-one, TFA salt] |
| < 25 | Cc1nc(N2CCC3(CC2)O[C@@H]2CC[C@@H](c4cccc(F)c4)N2C3=O)ccc1C#N [Example 4.77, 6-[(5′S,7a′R)-5′-(3-fluorophenyl)-3′-oxotetrahydro-1H,3′H-spiro[piperidine-4,2′-pyrrolo[2,1-b] [1,3]oxazol]-1-yl]-2-methylpyridine-3-carbonitrile] |
